In ChEMBL document CHEMBL1148295, “Evaluation and comparison of 3D-QSAR CoMSIA models for CDK1, CDK5, and GSK-3 inhibition by paullones” (J Med Chem, 2004):

Experiments:
[1] = target: Cyclin-dependent kinase 1/cyclin B (Homo sapiens, UniProt O95067+P06493+P14635+Q8WWL7); type: cell-based, Marthasterias glacialis, Oocyte
Description: Inhibitory activity against cyclin dependent kinase 1-cyclinB extracted from M phase starfish (Marthasterias glacialis) oocytes

[2] = target: Cyclin-dependent kinase 5/CDK5 activator 1 (Homo sapiens, UniProt Q00535); type: protein-complex assay
Chain of Cyclin-dependent kinase 5/CDK5 activator 1 (Q00535 whole entry): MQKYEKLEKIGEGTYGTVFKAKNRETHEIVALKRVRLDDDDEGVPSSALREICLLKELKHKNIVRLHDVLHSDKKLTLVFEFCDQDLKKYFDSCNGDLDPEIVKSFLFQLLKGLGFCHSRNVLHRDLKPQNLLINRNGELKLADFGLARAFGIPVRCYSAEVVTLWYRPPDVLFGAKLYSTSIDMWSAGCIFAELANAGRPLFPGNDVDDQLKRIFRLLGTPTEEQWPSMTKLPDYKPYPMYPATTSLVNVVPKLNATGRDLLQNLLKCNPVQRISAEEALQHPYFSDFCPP
Chain of Cyclin-dependent kinase 5/CDK5 activator 1 (Q15078 whole entry, further chain): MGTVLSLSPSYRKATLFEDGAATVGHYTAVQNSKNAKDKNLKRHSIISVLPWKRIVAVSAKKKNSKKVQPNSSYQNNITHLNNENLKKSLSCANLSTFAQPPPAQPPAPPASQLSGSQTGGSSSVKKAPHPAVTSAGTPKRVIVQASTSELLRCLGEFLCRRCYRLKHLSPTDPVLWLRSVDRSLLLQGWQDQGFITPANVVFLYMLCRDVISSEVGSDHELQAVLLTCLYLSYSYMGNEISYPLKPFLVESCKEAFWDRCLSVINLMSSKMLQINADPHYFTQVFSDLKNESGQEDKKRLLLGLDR
Description: Inhibitory activity against cyclin-dependent kinase 5/p25

Chain of Cyclin-dependent kinase 1/cyclin B (P06493 whole entry): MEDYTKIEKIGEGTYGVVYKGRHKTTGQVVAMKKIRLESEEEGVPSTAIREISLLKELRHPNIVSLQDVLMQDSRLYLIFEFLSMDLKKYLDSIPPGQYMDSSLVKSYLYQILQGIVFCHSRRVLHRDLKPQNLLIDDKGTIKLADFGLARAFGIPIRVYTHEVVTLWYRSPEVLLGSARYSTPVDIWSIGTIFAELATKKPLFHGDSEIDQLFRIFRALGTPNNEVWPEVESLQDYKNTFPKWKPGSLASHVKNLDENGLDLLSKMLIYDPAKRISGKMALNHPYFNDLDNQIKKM
Chain of Cyclin-dependent kinase 1/cyclin B (P14635 whole entry): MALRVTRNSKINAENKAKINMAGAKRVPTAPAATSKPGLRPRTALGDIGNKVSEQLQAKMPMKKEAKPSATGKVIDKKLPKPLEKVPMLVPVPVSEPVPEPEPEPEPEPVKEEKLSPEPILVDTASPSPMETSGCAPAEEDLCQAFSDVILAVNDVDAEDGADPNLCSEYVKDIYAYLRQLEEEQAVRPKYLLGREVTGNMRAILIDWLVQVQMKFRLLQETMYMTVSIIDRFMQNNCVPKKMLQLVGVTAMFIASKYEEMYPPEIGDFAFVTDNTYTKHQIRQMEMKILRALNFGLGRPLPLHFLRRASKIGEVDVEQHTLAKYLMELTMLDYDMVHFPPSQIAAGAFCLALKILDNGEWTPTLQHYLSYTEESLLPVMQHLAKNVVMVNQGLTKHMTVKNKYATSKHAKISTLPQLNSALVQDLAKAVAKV
Chain of Cyclin-dependent kinase 1/cyclin B (Q8WWL7 whole entry): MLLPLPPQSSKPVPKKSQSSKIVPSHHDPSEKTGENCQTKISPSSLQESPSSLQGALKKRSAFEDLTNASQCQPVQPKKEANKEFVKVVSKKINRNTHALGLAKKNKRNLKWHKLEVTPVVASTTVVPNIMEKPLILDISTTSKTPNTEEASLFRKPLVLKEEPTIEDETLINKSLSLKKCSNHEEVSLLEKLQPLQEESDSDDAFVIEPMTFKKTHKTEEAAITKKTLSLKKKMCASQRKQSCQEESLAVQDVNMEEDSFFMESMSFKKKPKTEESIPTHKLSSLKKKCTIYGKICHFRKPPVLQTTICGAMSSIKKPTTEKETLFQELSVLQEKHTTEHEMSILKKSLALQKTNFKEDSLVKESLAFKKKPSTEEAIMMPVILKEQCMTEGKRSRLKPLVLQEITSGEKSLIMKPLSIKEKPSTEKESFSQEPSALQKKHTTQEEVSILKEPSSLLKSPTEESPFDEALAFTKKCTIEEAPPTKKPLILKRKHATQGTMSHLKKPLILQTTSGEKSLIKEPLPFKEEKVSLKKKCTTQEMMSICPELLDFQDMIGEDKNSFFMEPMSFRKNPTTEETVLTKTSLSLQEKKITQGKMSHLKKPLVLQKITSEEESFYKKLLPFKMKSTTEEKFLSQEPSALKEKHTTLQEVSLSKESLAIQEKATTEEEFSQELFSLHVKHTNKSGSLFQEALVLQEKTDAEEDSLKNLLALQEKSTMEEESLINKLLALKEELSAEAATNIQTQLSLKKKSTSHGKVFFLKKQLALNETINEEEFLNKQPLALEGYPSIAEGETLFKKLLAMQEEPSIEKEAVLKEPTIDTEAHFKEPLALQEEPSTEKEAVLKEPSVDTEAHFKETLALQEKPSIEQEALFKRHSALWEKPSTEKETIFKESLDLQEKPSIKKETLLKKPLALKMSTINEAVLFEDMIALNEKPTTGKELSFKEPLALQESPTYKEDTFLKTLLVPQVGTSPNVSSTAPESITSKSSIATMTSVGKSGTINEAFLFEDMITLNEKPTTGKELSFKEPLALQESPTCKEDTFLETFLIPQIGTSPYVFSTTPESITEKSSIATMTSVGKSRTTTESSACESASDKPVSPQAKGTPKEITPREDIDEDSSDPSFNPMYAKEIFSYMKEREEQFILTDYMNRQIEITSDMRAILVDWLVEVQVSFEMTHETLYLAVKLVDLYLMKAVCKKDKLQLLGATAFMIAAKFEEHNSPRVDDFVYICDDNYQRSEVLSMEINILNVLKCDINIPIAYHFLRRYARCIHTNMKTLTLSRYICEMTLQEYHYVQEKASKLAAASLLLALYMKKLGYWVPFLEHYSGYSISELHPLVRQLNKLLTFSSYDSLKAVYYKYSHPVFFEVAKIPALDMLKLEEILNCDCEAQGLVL
Chain of Cyclin-dependent kinase 1/cyclin B (O95067 whole entry): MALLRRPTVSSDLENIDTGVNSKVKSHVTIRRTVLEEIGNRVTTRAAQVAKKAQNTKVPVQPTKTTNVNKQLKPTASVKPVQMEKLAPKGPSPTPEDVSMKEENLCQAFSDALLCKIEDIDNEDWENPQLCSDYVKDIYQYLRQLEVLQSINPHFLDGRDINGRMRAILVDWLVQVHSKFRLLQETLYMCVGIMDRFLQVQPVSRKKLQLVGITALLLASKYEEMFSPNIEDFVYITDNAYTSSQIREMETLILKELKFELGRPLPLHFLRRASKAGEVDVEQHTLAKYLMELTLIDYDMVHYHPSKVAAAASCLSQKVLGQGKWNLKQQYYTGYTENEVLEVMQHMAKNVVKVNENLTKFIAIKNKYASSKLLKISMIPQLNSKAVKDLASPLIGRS

SMILES	IC50 [1]	IC50 [2]
COc1ccc2c(c1)NC(=O)Cc1c-2[nH]c2ccc([N+](=O)[O-])cc12	1 µM	0.63 µM
N#Cc1ccc2[nH]c3c(c2c1)CC(=O)Nc1ccsc1-3	0.075 µM	–
Cc1ccc2[nH]c3c(c2c1)CC(=O)Nc1ccsc1-3	–	40 µM
O=C1Cc2c([nH]c3ccc([N+](=O)[O-])cc23)-c2sccc2N1	0.08 µM	0.1 µM
O=C1Cc2c([nH]c3ccc(C(F)(F)F)cc23)-c2cccnc2N1	6 µM	13 µM
COc1ccc2[nH]c3c(c2c1)CC(=O)Nc1ncccc1-3	89.9 µM	420 µM
O=[N+]([O-])c1ccc2[nH]c3c(c2c1)CC(=S)Nc1ccccc1-3	1.3 µM	1.7 µM
Cc1ccc2[nH]c3c(c2c1)CC(=O)Nc1ncccc1-3	200 µM	430 µM
O=C1Cc2c([nH]c3ccc(Br)cc23)-c2sccc2N1	–	4 µM
CSC1=Nc2ccccc2-c2c(c3cc([N+](=O)[O-])ccc3n2C)C1	230 µM	849 µM
SC1=Nc2ccccc2-c2cc(-c3ccccn3)cc(-c3cccs3)c2C1	33 µM	–
O=C1Cc2c([nH]c3ccc(Cl)cc23)-c2cccnc2N1	23 µM	42 µM
O=C1Cc2c([nH]c3ncccc23)-c2ccccc2N1	–	3.3 µM
CC(=O)Cc1ccc2c(c1)-c1[nH]c3ccc(C(F)(F)F)cc3c1CC(=O)N2	–	0.42 µM
O=C1Cc2c([nH]c3ccc(Cl)cc23)-c2sccc2N1	–	5 µM
